Data from patent publication US20250051762A1, “PLATFORM USING DNA-ENCODED SMALL MOLECULE LIBRARIES AND RNA SELECTION TO DESIGN SMALL MOLECULES THAT TARGET RNA” (University of Florida Research Foundation, Incorporated, priority 2021, published 2025).

Columns and labels:
[1] = system: fully paired RNA (loop mutated to a base pair); test: Binding affinity by MST, Cy5-labeled fully paired RNA
Protocol: Binding affinity measurements: Binding affinities were measured by microscale thermophoresis (MST), performed on a Monolith NT.115 system (NanoTemper Technologies) with Cy5-labeled RNAs. These RNAs include: the 5′GAG/3′CCC SEQ ID NO: 16 loop at pri-miR-27a's Drosha site (Sequence:/5′-Cy5/rCrUrGrArGrGrUrGrArArArCrArUrCrCrCrArG SEQ ID NO: 17; Dharmacon), a related internal loop not selected by 9. 5′CAG/3′GCC SEQ ID NO: 17 loop (Sequence:/5′-Cy5/rCrUrCrArGrGrUrGrArArArCrArUrCrCrGrArG SEQ ID NO: 16; Dharmacon), and an RNA in which the loop is mutated to a base pair (Sequence:/5-Cy5/rCrUrGrArGrGrUrGrArArArCrArUrCrUrCrArG SEQ ID NO: 16; Dharmacon).
Briefly, Cy5-labeled RNA (10 nM) was prepared in 1× Binding Buffer and folded by heating at 60° C. for 5 min and then slowly cooling to room temperature. After cooling, Tween-20 was added to a final concentration of 0.1% (v/v). Compound solutions were prepared separately in 20 μL of 1× Binding Buffer at a final concentration of 5 μM (1% (v/v) DMSO), followed by 1:1 serial dilutions in 1× Binding Buffer. RNA and compound solutions were then mixed 1:1 by volume to a total of 20 μL.
Samples were incubated for 20 min at room temperature and then loaded into premium capillaries (NanoTemper Tech, Cat #MO-K025). The following parameters were used for MST measurements: 5-20% LED power (adjusted to keep fluorescence intensity between 2000 and 8000), 80% MST power, Laser-On time=30 s, Laser-Off time=25 s. The resulting data were analyzed by calculating the change in thermophoresis as a function of compound concentration and fitted by Equation 1, a one site binding model, in NanoTemper Tech's MST analysis software to yield the dissociation constant (Kd):
Where F is the concentration of fluorescently labeled RNA; unbound and bound refer to the thermophoresis signal at completely unbound and bound state of RNA, respectively; c is the concentration of the compound; f (c) is the thermophoresis signal at compound concentration of c; and Kd is the dissociation constant.

[2] = system: pri-miR-27a; test: RT-qPCR of pri- and mature miR-27a in LNCaP cells; type: cell-based, human
Protocol: Cell lines. Compounds were tested in MDA-MB-231 TNBC cells (HTB-26, ATCC), LNCaP metastatic prostate cancer cells (gifted from Junli Luo lab), MCF-7 (HTB-22, ATCC) breast cancer cells, HeLa cervical adenocarcinoma cells (CCL-2, ATCC), and MCF-10a, a model of healthy breast epithelial cells (CRL-10317, ATCC).
Cell culture and compound treatment. All cells were maintained at 37° C. with 5% CO2. MDA-MB-231 and LNCaP cells were cultured in RPMI 1640 medium with L-glutamine & 25 mM HEPES (Corning) supplemented with 10% (v/v) fetal bovine serum (FBS; Sigma) and 1× (v/v) Antibiotic-Antimycotic solution (Corning). MCF-7 and HeLa cells were cultured in DMEM medium with 4.5 g/L glucose (Corning), supplemented with 10% FBS, 1× (v/v) Glutagro (Corning), and 1× (v/v) Antibiotic-Antimycotic solution. […]
Analysis of mRNA abundance: Each cell line was grown as a monolayer in 12- or 24-well plates and treated as described in “Cell culture and compound treatment”. […] Relative abundance of mature miRNAs was calculated by normalizing to RNU6, and relative abundance for pri-miRNAs and mRNAs was calculated by normalizing to 18S ribosomal RNA, using the AAC, method. […]

C#CCN(CC(N)=O)C(=O)C[C@H](Cc1c[nH]c2ccccc12)NC(=O)[C@@H]1C[C@H](NC(=O)Cn2c(=O)[nH]c3ccccc3c2=O)CN1 [Compound 9]
saturable binding [1]: Saturable binding was not observed | dose with significant inhibition of miR-27a processing [2]: 100 nM
